Experimental data taken from ChEMBL document CHEMBL3244419.
The source made the active and inactive calls. The calls are words filed in the database; no cut-off is given here.

Tests used:
[1] = tested on: NG108-15; settings: 0.5 uM
Description: Antagonist activity at opioid receptor in mouse/rat NG108-15 cells assessed as reversal of morphine-induced inhibition of adenylate cyclase activity at 0.5 uM

[2] = species on record: Cavia porcellus; settings: Ileum, 10 nM
[3] = species on record: Cavia porcellus; test: Agonist activity at opioid receptor in electrically stimulated guinea pig ileum at >=50 uM; assay type: tissue-based
[4] = tested on: NG108-15; test: Agonist activity at opioid receptor in mouse/rat NG108-15 cells assessed by adenylate cyclase assay; assay type: cell-based
[5] = species on record: Cavia porcellus; test: Agonist activity at opioid receptor in electrically stimulated guinea pig ileum at <50 uM; assay type: tissue-based

Compound	inhibition [1]	inhibition [2]	Activity [3]	Activity [4]	Activity [5]
C=CCN1CC[C@]23c4c5ccc(O)c4O[C@H]2C(=O)CC[C@@]3(O)[C@H]1C5	Active	Active			
C=CCN1CC[C@@]23c4c5ccc(O)c4O[C@@H]2C(=O)CC[C@]3(O)[C@@H]1C5			inactive	inactive	inactive
